Source: patent US10682371B2, “Small molecule conjugates specifically activated in tumor microenvironment for targeting and use thereof” (priority 2014, dated 2020)

Assays:
Human colon cancer HT-29 = experiment: Multiple tumor models in nude mice: HT-29; format: in vivo; settings: 15 mg/kg once weekly for three weeks, Day 26
Description: (§1) 1) Corresponding tumor cells were purchased from American type culture collection (ATCC) and identified according the specification provided by ATCC. Cells were cultivated in DMEM culture solution containing 10% fetal bovine serum at 37° C. and 5% CO2. The cells were passaged for every three days and cells within the 15th passage were used.
(§2) 2) Production of tumor. 5×10^6 corresponding cells were subcutaneously injected to the back of the nude mice. Mice were randomly grouped after the tumor reached at least 100 mm^3. Then treatment began and the day on which the treatment began was day 1.
(§3) 3) Course of treatment. […] The control group was administered by physiological saline. Animals were administered once weekly for three weeks.
(§4) 3) Course of treatment. According to the clinical application of A1, A1 was administered in a dose of ⅙ MTD, i.v., 17.6 μmol/kg. The control group was administered by physiological saline. Animals were administered once weekly for three weeks.
(§5) 3) Course of treatment. According to the clinical application of B1, B1 was administered in a dose of ⅙ MTD, i.v., 17.6 μmol/kg. The control group was administered by physiological saline. Animals were administered once weekly for three weeks.
as §3, §3

[1] = Multiple tumor models in nude mice: HT1080; format: in vivo; settings: Human colon caner HT1080; 15 mg/kg once weekly for three weeks; Day 26
Description: as §1, §2, §3, §4, §5, §3, §3

[2] = system: Human pancreatic cancer Panc-1; experiment: Multiple tumor models in nude mice: Panc-1; format: in vivo; settings: 15 mg/kg once weekly for three weeks, Day 26
Description: as §1, §2, §3, §4, §5, §3, §3

HT1080 cells = experiment: Tumor treatment in nude mice, HT1080 model (Example 61); format: in vivo; settings: for Size of tumor (mm^3) Day 13 / inhibitory rate on tumor Day 13 / Size of tumor (mm^3) Day 26 / inhibitory rate on tumor (Day 26): HT1080 in nude mice, IV once weekly for four weeks, E1-E4 15 mg/kg, mitomycin 2 mg/kg; for Inhibition on tumor growth, in words: HT1080, compared with mitomycin group and control group
Description: as §1, with “HT1080” for “Corresponding tumor”
2) Production of tumor. 5×10^6 HT1080 cells were subcutaneously injected to the back of the nude mice. Mice were randomly grouped after the tumor reached at least 100 mm^3. Then treatment began and the day on which the treatment began was day 1.
(§6) […]. The control group was administered by physiological saline. Drugs were administered once weekly for four weeks.

[3] = system: Human chronic leukemia K562; experiment: Multiple tumor models in nude mice: K562; format: in vivo; settings: 15 mg/kg once weekly for three weeks, Day 26
Description: as §1, §2, §3, §4, §5, §3, §3

[4] = system: Human renal cancer OS-RC-2; experiment: Multiple tumor models in nude mice: OS-RC-2; format: in vivo; settings: 15 mg/kg once weekly for three weeks, Day 26
Description: as §1, §2, §3, §4, §5, §3, §3

[5] = system: Human non-small cell lung cancer A549; experiment: Multiple tumor models in nude mice: A549; format: in vivo; settings: 15 mg/kg once weekly for three weeks, Day 26
Description: as §1, §2, §3, §4, §5, §3, §3

Panc-1 cells = experiment: Tumor treatment in nude mice, Panc-1 model (Example 60); format: in vivo; settings: for Size of tumor (mm^3) Day 10 / inhibitory rate on tumor Day 10 / Size of tumor (mm^3) Day 24 / inhibitory rate on tumor Day 24: Panc-1 in nude mice, IV once weekly for four weeks, E1-E4 15 mg/kg, mitomycin 2 mg/kg; for Inhibition on tumor growth, in words: Panc-1, compared with mitomycin group and control group
Description: as §1, with “Panc-1” for “Corresponding tumor”
2) Production of tumor. 5×10^6Panc-1 cells were subcutaneously injected to the back of the nude mice. Mice were randomly grouped after the tumor reached at least 100 mm^3. Then treatment began and the day on which the treatment began was day 1.
as §6

[6] = system: scar and choroidal neovascularization (CNV); experiment: Inhibition of scar and choroidal neovascularization (CNV) by eye drops after laser photocoagulation; format: in vivo, C57 mice; settings: for Maximal scar radius observed by pathological staining (pixel): 150 mW laser photocoagulation, eye drops daily, two weeks, C57 mice; for Treatment effect on scar radius and inhibition of macrophage, in words: eye drops, compared to the control group and the mitomycin group
Description: Animal: C57 mice of 16 weeks old, all female and 8 animals in each group.
(§7) Production and treatment of scar. […] Two weeks later, eye tissues were taken from 4 animals of each group for immunohistochemical (HE) staining. For another 4 animals, they were subjected to fixed irradiation through photocoagulation by 50 mW laser and then to treatment. 48 hours later, their eye tissues were taken, homogenated, filtered to isolate individual cells in the scar and choroidal neovascularization (CNV) tissues. The cells were washed by buffer twice and stained by biotin-conjugated anti-F4/80 (biotin-labeled precursor cell antigen from macrophage) and FITC-conjugated anti-CD45 (isothiocyanate fluorescein labeled leucocyte common antigen) at ambient temperature for 1 hour. Then the cells were washed by PBS containing 1% fetal bovine serum twice and then analyzed for the ratio of the macrophage precursor antigen positive cells in the leucocyte common antigen (CD45) positive cells by flow cytometry.

macrophage = experiment: Macrophage precursor antigen (F4/80) positive cells in CD45 positive cells of scar/CNV tissue, flow cytometry; format: in vivo, C57 mice; settings: 50 mW laser, 48 hours after treatment
Description: as §7

[7] = system: Human ovarian cancer SK-OV-3; experiment: Multiple tumor models in nude mice: SK-OV-3; format: in vivo; settings: 15 mg/kg once weekly for three weeks, Day 26
Description: as §1, §2, §3, §4, §5, §3, §3

Row | SMILES | inhibitory rate on tumor (Day 26) (Human colon cancer HT-29) [%] | inhibitory rate on tumor (Day 26) [1] [%] | inhibitory rate on tumor (Day 26) [2] [%] | Size of tumor (mm^3) Day 13 (HT1080 cells) [mm^3] | inhibitory rate on tumor Day 13 (HT1080 cells) [%] | Size of tumor (mm^3) Day 26 (HT1080 cells) [mm^3] | inhibitory rate on tumor (Day 26) (HT1080 cells) [%] | Inhibition on tumor growth, in words (HT1080 cells) | inhibitory rate on tumor (Day 26) [3] [%] | inhibitory rate on tumor (Day 26) [4] [%] | inhibitory rate on tumor (Day 26) [5] [%] | Size of tumor (mm^3) Day 10 (Panc-1 cells) [mm^3] | inhibitory rate on tumor Day 10 (Panc-1 cells) [%] | Size of tumor (mm^3) Day 24 (Panc-1 cells) [mm^3] | inhibitory rate on tumor Day 24 (Panc-1 cells) [%] | Inhibition on tumor growth, in words (Panc-1 cells) | Maximal scar radius observed by pathological staining (pixel) [6] [pixel] | Treatment effect on scar radius and inhibition of macrophage, in words [6] | F4/80+ cells among CD45+ cells (%) (macrophage) | inhibitory rate on tumor (Day 26) [7] [%]
1 | COCCOCC(=O)N[C@H](C)C(=O)N[C@H](C)C(=O)N[C@H](CC(N)=O)C(=O)Nc1ccc(COC(=O)N2[C@@H]3CN4C5=C(C(=O)C(N)=C(C)C5=O)[C@H](COC(N)=O)[C@]4(OC)[C@@H]32)cc1 [Compound E1, 2-(2-methoxyethoxy) acetyl-L-Ala-L-Ala-L-Asn-4-amino benzyl mitomycin] | 86.7 | 95.4 | 86.5 | 438.15 ± 47.96 | 51.9 | 331.57 ± 114.74 | 78.9 | greatly improved | 77.3 | 81.3 | 95.3 | 76.42 ± 14.96 | 35.7 | 84.62 ± 45.94 | 66.1 | greatly improved | 332 ± 124 | greatly improved treatment effect on scar radius and inhibition of macrophage | 7.1 ± 1.4 | 84.5
2 | COCCOCCOCCOCCOCCOCC(=O)N[C@H](C)C(=O)N[C@H](C)C(=O)N[C@H](CC(N)=O)C(=O)Nc1ccc(COC(=O)N2[C@H]3[C@@H]2CN2C4=C(C(=O)C(N)=C(C)C4=O)[C@H](COC(N)=O)[C@]32OC)cc1 [Compound E2] |  |  |  | 378.11 ± 68.46 | 58.5 | 137.60 ± 156.42 | 91.3 | greatly improved |  |  |  | 60.17 ± 30.26 | 36.4 | 42.39 ± 62.24 | 83.01 | greatly improved | 348 ± 146 | greatly improved treatment effect on scar radius and inhibition of macrophage | 7.7 ± 1.7 | 
3 | CO[C@@]12[C@H](COC(N)=O)C3=C(C(=O)C(C)=C(N)C3=O)N1C[C@@H]1N[C@@H]12 [mitomycin, reference compound] |  |  |  | 876.48 ± 78.29 | 3.7 | 1410.28 ± 375.46 | 10.4 |  |  |  |  | 118.85 ± 36.47 | 7.5 | 249.54 ± 95.46 | 27.9 |  | 953 ± 249 |  | 14.6 ± 2.4 | 
